# Where two headings read alike, the source gives them in different places. Ends that are not written are not given here. Peptide text beside a SMILES is read from it.
# What was measured:
# AGS (stomach) cells = format: cell-based, human; settings: 72 h
# Protocol: (§1) The cytotoxic effects of brevinin-1 E8.13 were evaluated in six human cancer cell lines: A549 (lung), AGS (stomach), Jurkat (blood), HCT116 (colon), HL60 (blood), and HepG2 (liver). All cell lines were cultured in either DMEM or RPMI-1640 medium supplemented with 10% fetal bovine serum (FBS) and 1% penicillin–streptomycin, under conditions of 5% CO2 at 37 °C. The 3-(4,5-dimethylthiazol-2-yl)-2,5-diphenyltetrazolium bromide (MTT) assay was used to assess cell viability. Cells were seeded at a density of 10^4 cells per well in 96-well plates and incubated at 37 °C. After 72 h of treatment with the peptide, 10 µL of MTT reagent (Merck, Darmstadt, Germany) in PBS, pH 7.0 was added to each well and incubated for 4 h. Following supernatant removal, 100 µL of dimethyl sulfoxide (DMSO, Merck, Germany) was added to dissolve the resulting formazan crystals. Absorbance was measured at 570 nm using a microplate reader. Each experimental condition was performed in triplicate. The cytotoxicity of the peptide was also evaluated in normal human dermal fibroblast cells using the same assay.
# HepG2 (liver) cells = format: cell-based, human; settings: 72 h
# Protocol: as §1
# HCT116 (colon) cells = format: cell-based, human; settings: 72 h
# Protocol: as §1
# HL60 (blood) cells = format: cell-based, human; settings: 72 h
# Protocol: as §1
# A549 (lung) cells = format: cell-based, human; settings: 72 h
# Protocol: as §1
# Jurkat (blood) cells = format: cell-based, human; settings: 72 h
# Protocol: as §1
# [1] = Circular dichroism, secondary structure estimated with CDNN 2.1; format: physicochemical; settings: 0.3 mg/mL in deionized water, CDNN 2.1, 190–260 nm range
# Protocol: The CD spectrum of the peptide brevinin-1 E8.13 was measured to evaluate its secondary structure. The peptide was dissolved in deionized water at a concentration of 0.3 mg/mL. Measurements were performed using a ChiraScan™ Circular Dichroism Spectrometer (Applied Photophysics, Leatherhead, Surrey, UK) with a quartz cuvette of 1 mm path length. The CD spectra were recorded over a wavelength range of 180–260 nm using the default instrument settings recommended by the manufacturer (scanning speed, integration time, and bandwidth). Each sample was measured three consecutive times, and the solvent-corrected average spectrum was used for analysis. The resulting spectra were processed using the CDNN 2.1 (Circular Dichroism Neural Network) software to estimate the proportions of secondary structural elements, including α-helix, β-sheet, β-turn, and random coil.
# Bacillus subtilis = format: cell-based
# Protocol: (§2) The antibacterial activity of brevinin-1 E8.13 was evaluated against six bacterial strains, including two Gram-positive species (Staphylococcus aureus and Bacillus subtilis) and four Gram-negative species (Escherichia coli, Acinetobacter baumannii, Klebsiella pneumoniae, and Pseudomonas aeruginosa). All strains were isolated and identified by the Department of Microbiology, Thanh Nhan Hospital (Hanoi, Vietnam), and are currently maintained at the Laboratory of Cell Biotechnology and Bioassay, Institute of Biology, Vietnam Academy of Science and Technology (VAST).
# (§3) Each bacterial strain was first cultured overnight in Luria–Bertani (LB) broth. Then, 100 μL of the overnight culture was transferred to 5 mL of fresh LB broth and incubated at 37 °C with shaking until reaching the logarithmic growth phase. Cultures were adjusted to a concentration of 10^6 colony-forming units (CFU)/mL and dispensed into 96-well plates. The peptide was added at final concentrations ranging from 24.8 μM to 0.4 μM. After 24 h of incubation at 37 °C, bacterial growth was quantified by measuring optical density (OD) at 600 nm using a Synergy HT microplate reader (BioTek, Winooski, VT, USA). All concentrations were tested in triplicate.
# Staphylococcus aureus = format: cell-based; settings: for MIC S. aureus: 24 h
# Protocol: as §2, §3
# Escherichia coli = format: cell-based
# Protocol: as §2, §3
# Klebsiella pneumoniae = test: Antibacterial activity (MIC, broth dilution in 96-well plates); format: cell-based; settings: LB broth, 10^6 CFU/mL, 24 h at 37 °C, OD 600 nm, triplicate
# Protocol: as §2, §3
# Pseudomonas aeruginosa = test: as above; format: cell-based; settings: LB broth, 10^6 CFU/mL, 24 h at 37 °C, OD 600 nm, triplicate
# Protocol: as §2, §3
# Acinetobacter baumannii = test: as above; format: cell-based; settings: LB broth, 10^6 CFU/mL, 24 h at 37 °C, OD 600 nm, triplicate
# Protocol: as §2, §3
# [2] = system: human cancer cell lines (A549, AGS, Jurkat, HCT116, HL60, HepG2); format: cell-based
# Protocol: as §1
# [3] = LB broth, 10^6 CFU/mL, 24 h at 37 °C, OD 600 nm, triplicate
compound,measurement,setting,value
CC[C@H](C)[C@H](NC(=O)[C@H](C)NC(=O)[C@H](C)NC(=O)[C@@H]1CCCN1C(=O)[C@@H](NC(=O)[C@H](CC(C)C)NC(=O)[C@H](CCCCN)NC(=O)[C@H](CO)NC(=O)[C@H](C)NC(=O)[C@@H](NC(=O)[C@H](CCCCN)NC(=O)[C@H](Cc1ccccc1)NC(=O)[C@H](CC(C)C)NC(=O)[C@H](C)NC(=O)CNC(=O)[C@H](CC(C)C)NC(=O)[C@@H](N)Cc1ccccc1)C(C)C)C(C)C)C(=O)N[C@@H](CS)C(=O)N[C@@H](CO)C(=O)N[C@@H](Cc1ccccc1)C(=O)N[C@@H](CO)C(=O)N[C@@H](CCCCN)C(=O)N[C@@H](CCCCN)C(=O)N[C@@H](CS)C(N)=O [Brevinin-1 E8.13] (H-FLGALFKVASKLVPAAICSFSKKC-NH2; N-terminus assumed),IC50,AGS (stomach) cells,7.5 µM
same,IC50,HepG2 (liver) cells,11.7 µM
same,IC50,HCT116 (colon) cells,9.2 µM
same,IC50,HL60 (blood) cells,14.8 µM
same,IC50,A549 (lung) cells,31.6 µM
same,IC50,Jurkat (blood) cells,12.9 µM
same,Antiparallel β-sheet content (CD),[1],36.2%
same,Random coil content (CD),[1],27.74%
same,α-helix content (CD),[1],11.83%
same,β-turn content (CD),[1],15.48%
same,MIC B. subtilis,Bacillus subtilis; [3],> 24.8 µM
same,MIC S. aureus,Staphylococcus aureus,1.5 µM
same,Selectivity Index (SI) toward Staphylococcus aureus over normal cells,"Staphylococcus aureus; SI = IC50 (HDF) or HC50 / MIC, result in words",high selectivity (SI > 10 reflects high selectivity)
same,MIC E. coli,Escherichia coli; [3],> 24.8 µM
same,MIC K. pneumonia,Klebsiella pneumoniae,> 24.8 µM
same,MIC P. aeruginosa,Pseudomonas aeruginosa,> 24.8 µM
same,MIC A. baumanii,Acinetobacter baumannii,> 24.8 µM
same,IC50,[2]; 72 h,7.5 to 14.8 µM
same,Selectivity Index (SI) toward cancer cells,"[2]; SI = IC50 (HDF) or HC50 / IC50 (cancer cells), result in words",moderate selectivity
"FAKWAFKWLKK-NH2 [GA-K4AL, reference compound]",MIC B. subtilis,Bacillus subtilis; 24 h,>41.8 µM
same,MIC S. aureus,Staphylococcus aureus,2.5 µM
same,MIC E. coli,Escherichia coli; 24 h,10.1 µM
